Data: patent publication US20200315950A1, “COMPOSITION FOR MODULATING THE GENES RESPONSIBLE FOR GENERAL SKIN FUNCTIONS, METHOD FOR MODULATING THE EXPRESSION OF GENES RESPONSIBLE FOR GENERAL SKIN FUNCTIONS, AND USE OF A PLANT EXTRACT” (Natura Cosmeticos S.A., priority 2016, published 2020)
Values joined by “and” are separate entries in the source; they are usually repeats but may differ in a detail not shown here. Equal values may be shown once.

System: 180 genes in skin explants
Assay: Large scale gene expression profile assay (PCR array) in skin explants
Format: cell-based, human
Conditions: eyelid skin explants, 2 mg/cm^2 topical, 24 hours, threshold 30% increase or reduction
Experimental: A large scale gene expression profile assay (by PCR array) was performed of 180 genes in skin explants obtained subsequent to blepharoplasty and subjected to individual treatments with the present invention.
Initially, skin explants were obtained from the eyelids of females between 45 and 55 years of age, three (3) different donors of each age. The explants were split into halves and immediately inserted, in triplicate from each donor, into a culture medium and kept for 24 hours (half 1) and 72 hours (half 2) in a wet environment, at 37° C., 5% CO2. […]
Half (1) was collected and subjected to total RNA extraction. The quality of the extracted RNA was qualitatively (Bioanalyzer microcapillary electrophoresis) and quantitatively (Nanodrop spectrophotometer) assessed. […] The ΔCt values for the GAPDH (glyceraldehyde-3-phosphate dehydrogenase) reference gene and target gene were calculated by subtracting from each other the values for the experimental groups. […] Lastly, a relative quantification of the target genes was determined by using the equation: RQ=2−ΔΔCt. […] The statistical significance was assessed by using the t test followed by the Benjamini-Hochberg method (FDR—false discovery rate), which p-value<0.05 was considered significant. […]

Molecule | number of genes modulated as compared to the untreated control
hyaluronic acid [Hyaluronic Acid sample] | 162 genes and 146 genes
C/C=C/C=C\CC/C=C/C(=O)NCC(C)C [spilanthol sample, spilanthol] | 163 genes
